Measured values published in ChEMBL document CHEMBL1201862, “PubChem BioAssay data set” (2004).
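1) Cells in 96-well plates. 2) Compound, 48 h, 5 concentrations. 3) Linear interpolation between surrounding doses. 4) Unreached endpoint = highest concentration. Here, GI50 denotes the concentration required for 50% inhibition of growth.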 The source made the active and inactive calls. Cut-off read from the data, not from the text of the source: active = GI50 up to about 1.1 µM and inactive = higher.

Tests used:
Experiment in all cases: NCI anticancer screen, dose series, 48 h
[1] = system: RPMI-8226
[2] = system: NCI-H460
[3] = system: NCI-H522
[4] = system: SF-539
[5] = system: NCI-H226
[6] = system: UO-31
[7] = system: A549
[8] = system: OVCAR-4
[9] = system: BT-549
[10] = system: HOP-62
[11] = system: NCI/ADR-RES
[12] = system: Hs-578T
[13] = system: 786-0
[14] = system: KM12
[15] = system: PC-3
[16] = system: ACHN
[17] = system: HL-60
[18] = system: NCI-H23
[19] = system: MDA-N
[20] = system: MOLT-4

Measured: GI50

C[C@@H](CN1CC(=O)NC(=O)C1)N1CC(=O)NC(=O)C1 [DEXRAZOXANE]
inactive: [1] 327 µM | [2] 6.67 µM | [3] 67.8 µM | [4] 332 µM | [5] 101 µM | [6] 354 µM | [7] 37.2 µM | [8] 115 µM | [9] 230 µM | [10] 66.8 µM | [11] 282 µM | [12] 320 µM | [13] 266 µM | [14] 522 µM | [15] 180 µM | [16] 139 µM | [17] 51.1 µM | [18] 125 µM | [19] 241 µM | [20] 15.8 µM
